{"source": "patent US6207399A", "about": "“Methods of determining endogenous thrombin potential (ETP) and thrombin substrates for use in said methods” (Hemker; Hendrik Coenraad, priority 1995, dated 2001)", "key": {"[1]": {"target": "T1, euglobulin thrombin (Homo sapiens, UniProt P00734)", "T1 construct": "The euglobulin thrombin fraction was prepared from defibrinated human plasma; from tissue; host or cells: defibrinated human plasma (euglobulin fraction, acid precipitation, method of Josso and Prou-Wartelle)", "experiment": "Decay constants of thrombin in plasma", "type": "biochemical", "method": "(§1) To this mixture was added 10 μL of a thrombin preparation to achieve a final concentration of 100 nM. At regular time intervals (5-10 s) 10 μL samples were subsampled into 490 μL buffer B which contained 200 μM of S2238 to determine thrombin activity. After 2 min the reaction was stopped by adding 300 μL 1M citric acid. The moment of sampling and stopping were recorded on a personal computer with pushbutton-equipped pipettes. The optical density was then read at 405 nm and the obtained amidolytic activities were used to calculate the decay constants. The obtained decay constant is the sum of the decay constants of the reaction of thrombin with antithrombin III (k1) and α2 -macroglobulin (k2).\nas §1, with “Decay constants of thrombin in plasma: To 120 μL defibrinated plasma was added: 50 μL of buffer A which contained the substances to be tested. To” for “To”, “was” for “was then”"}, "[2]": {"test_system": "thrombin", "details": "Svendsen et al; cited from earlier work"}}, "note": "Peptide text beside a SMILES is read from it. * marks the point of attachment. pNA = O=[N+]([O-])c1ccc(N*)cc1", "data": [{"smiles": "CC(C)[C@H](N)C(=O)N[C@@H](CCCNC(=N)N)C(=O)Nc1ccc([N+](=O)[O-])cc1.Cl.Cl", "note": "[2HCl.H-Val-Arg-pNA] (H-Val-Arg-pNA)", "values": [{"measurement": "k1 : AT-III dependent decay of thrombin", "setting": "[1]; [S] 100 μM in plasma", "result": 2.064, "unit": "min⁻¹"}, {"measurement": "k2 : α2 M dependent decay of thrombin", "setting": "[1]; [S] 100 μM in plasma", "result": 0.253, "unit": "min⁻¹"}, {"measurement": "koverall", "setting": "[1]; [S] 100 μM in plasma", "result": 2.317, "unit": "min⁻¹"}, {"measurement": "t1/2", "setting": "[1]; [S] 100 μM in plasma", "result": 17.95, "unit": "s"}, {"measurement": "(k1,corr) = k1,corr divided by μM AT-III", "setting": "[1]; [S] 200 μM in plasma", "result": 1.286, "unit": "min⁻¹ µM⁻¹"}, {"measurement": "k1,corr : k1 after correcting for k2,M and 0.170", "setting": "[1]; [S] 200 μM in plasma", "result": 1.750, "unit": "min⁻¹"}, {"measurement": "k1 : AT-III dependent decay of thrombin", "setting": "[1]; [S] 200 μM in plasma", "result": 1.751, "unit": "min⁻¹"}, {"measurement": "k2 : α2 M dependent decay of thrombin", "setting": "[1]; [S] 200 μM in plasma", "result": 0.402, "unit": "min⁻¹"}, {"measurement": "koverall", "setting": "[1]; [S] 200 μM in plasma", "result": 2.154, "unit": "min⁻¹"}, {"measurement": "t1/2", "setting": "[1]; [S] 200 μM in plasma", "result": 19.31, "unit": "s"}, {"measurement": "(k1,corr) = k1,corr divided by μM AT-III", "setting": "[1]; [S] 500 μM in plasma", "result": 1.118, "unit": "min⁻¹ µM⁻¹"}, {"measurement": "k1,corr : k1 after correcting for k2,M and 0.170", "setting": "[1]; [S] 500 μM in plasma", "result": 1.521, "unit": "min⁻¹"}, {"measurement": "k1 : AT-III dependent decay of thrombin", "setting": "[1]; [S] 500 μM in plasma", "result": 1.509, "unit": "min⁻¹"}, {"measurement": "k2 : α2 M dependent decay of thrombin", "setting": "[1]; [S] 500 μM in plasma", "result": 0.389, "unit": "min⁻¹"}, {"measurement": "koverall", "setting": "[1]; [S] 500 μM in plasma", "result": 1.898, "unit": "min⁻¹"}, {"measurement": "t1/2", "setting": "[1]; [S] 500 μM in plasma", "result": 21.91, "unit": "s"}, {"measurement": "(k1,corr) = k1,corr divided by μM AT-III", "setting": "[1]; [S] 1000 μM in plasma", "result": 1.110, "unit": "min⁻¹ µM⁻¹"}, {"measurement": "k1,corr : k1 after correcting for k2,M and 0.170", "setting": "[1]; [S] 1000 μM in plasma", "result": 1.510, "unit": "min⁻¹"}, {"measurement": "k1 : AT-III dependent decay of thrombin", "setting": "[1]; [S] 1000 μM in plasma", "result": 1.676, "unit": "min⁻¹"}, {"measurement": "k2 : α2 M dependent decay of thrombin", "setting": "[1]; [S] 1000 μM in plasma", "result": 0.204, "unit": "min⁻¹"}, {"measurement": "koverall", "setting": "[1]; [S] 1000 μM in plasma", "result": 1.879, "unit": "min⁻¹"}, {"measurement": "t1/2", "setting": "[1]; [S] 1000 μM in plasma", "result": 27.12, "unit": "s"}, {"measurement": "k1 : AT-III dependent decay of thrombin", "setting": "[1]; [S] 1500 μM in plasma", "result": 1.087, "unit": "min⁻¹"}, {"measurement": "k2 : α2 M dependent decay of thrombin", "setting": "[1]; [S] 1500 μM in plasma", "result": 0.130, "unit": "min⁻¹"}, {"measurement": "koverall", "setting": "[1]; [S] 1500 μM in plasma", "result": 1.217, "unit": "min⁻¹"}, {"measurement": "t1/2", "setting": "[1]; [S] 1500 μM in plasma", "result": 34.17, "unit": "s"}, {"measurement": "k1 : AT-III dependent decay of thrombin", "setting": "[1]; [S] 2000 μM in plasma", "result": 0.877, "unit": "min⁻¹"}, {"measurement": "k2 : α2 M dependent decay of thrombin", "setting": "[1]; [S] 2000 μM in plasma", "result": 0.128, "unit": "min⁻¹"}, {"measurement": "koverall", "setting": "[1]; [S] 2000 μM in plasma", "result": 1.005, "unit": "min⁻¹"}, {"measurement": "t1/2", "setting": "[1]; [S] 2000 μM in plasma", "result": 41.37, "unit": "s"}, {"measurement": "factor by which poorer substrate for thrombin than Benzoyl-Phe-Val-Arg-p-nitroanilide", "setting": "[2]", "result": "≥ 100"}]}]}
